In this assay the target is USP1 (construct USP1 (I-785, GG670, 671AA)/UAF1 (I-677)-Flag) (Homo sapiens (Human), UniProt O94782, G670A/G671A). Kind of assay: Ubiquitin-Rhodamine 110 assay for USP1 activity. The format is biochemical. The settings on record: USP1/UAF1 25 pM, Ub-Rh110 25 nM, 30 min preincubation. An outline of the steps: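 Two formats with the USP1/UAF1 complex and 25 nM ubiquitin-rhodamine 110 in pH 8.0 Tris buffer with calcium, glutathione and detergent. Single-point screening used 10 µM, 100 pM enzyme and 45 min. Inhibition was set against no-enzyme and DMSO wells.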
USP1 (construct USP1 (I-785, GG670, 671AA)/UAF1 (I-677)-Flag), sequence (O94782 whole entry G670A/G671A): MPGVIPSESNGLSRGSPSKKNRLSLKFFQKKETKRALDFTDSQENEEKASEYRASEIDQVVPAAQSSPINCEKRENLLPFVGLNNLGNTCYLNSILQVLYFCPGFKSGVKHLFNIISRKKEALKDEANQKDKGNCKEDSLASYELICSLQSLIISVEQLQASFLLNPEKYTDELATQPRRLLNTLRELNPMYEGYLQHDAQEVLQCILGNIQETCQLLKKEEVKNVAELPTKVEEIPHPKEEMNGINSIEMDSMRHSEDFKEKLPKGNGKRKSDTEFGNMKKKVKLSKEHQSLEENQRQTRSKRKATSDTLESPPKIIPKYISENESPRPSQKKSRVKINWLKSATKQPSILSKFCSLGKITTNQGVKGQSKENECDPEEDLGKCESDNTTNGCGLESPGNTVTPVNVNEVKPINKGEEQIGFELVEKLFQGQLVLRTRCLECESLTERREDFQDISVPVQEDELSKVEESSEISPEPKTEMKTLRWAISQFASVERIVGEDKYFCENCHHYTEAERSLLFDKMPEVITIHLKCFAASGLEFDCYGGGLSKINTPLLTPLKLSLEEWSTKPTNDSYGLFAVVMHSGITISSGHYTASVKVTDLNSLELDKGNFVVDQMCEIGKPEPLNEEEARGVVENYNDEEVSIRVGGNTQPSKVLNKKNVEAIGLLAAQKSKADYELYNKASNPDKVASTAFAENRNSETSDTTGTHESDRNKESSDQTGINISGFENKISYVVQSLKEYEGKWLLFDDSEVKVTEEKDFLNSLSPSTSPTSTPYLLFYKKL
USP1 (construct USP1 (I-785, GG670, 671AA)/UAF1 (I-677)-Flag), sequence (Q8TAF3 whole entry partner): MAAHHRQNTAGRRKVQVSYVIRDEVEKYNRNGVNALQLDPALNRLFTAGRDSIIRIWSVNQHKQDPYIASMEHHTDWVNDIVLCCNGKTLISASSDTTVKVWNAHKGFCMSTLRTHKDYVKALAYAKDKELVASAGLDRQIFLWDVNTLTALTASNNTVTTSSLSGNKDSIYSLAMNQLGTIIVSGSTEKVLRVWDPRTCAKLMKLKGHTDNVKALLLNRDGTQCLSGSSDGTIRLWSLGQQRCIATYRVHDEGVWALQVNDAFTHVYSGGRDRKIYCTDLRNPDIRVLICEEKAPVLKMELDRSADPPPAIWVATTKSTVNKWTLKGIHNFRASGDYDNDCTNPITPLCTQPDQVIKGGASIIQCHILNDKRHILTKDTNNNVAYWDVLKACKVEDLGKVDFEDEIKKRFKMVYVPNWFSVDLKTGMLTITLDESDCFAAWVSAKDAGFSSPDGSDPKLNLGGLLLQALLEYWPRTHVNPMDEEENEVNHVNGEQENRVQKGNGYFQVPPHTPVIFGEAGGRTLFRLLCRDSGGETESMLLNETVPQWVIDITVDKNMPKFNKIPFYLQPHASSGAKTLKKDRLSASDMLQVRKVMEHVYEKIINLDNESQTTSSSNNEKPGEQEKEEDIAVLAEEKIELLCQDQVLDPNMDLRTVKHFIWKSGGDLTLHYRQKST

As for `CC(C)c1ccccc1-c1ncc2[nH]c(=O)n(Cc3ccc(C(=O)N(C)C4CCCCC4)cc3)c2n1` [Compound I-364, N-cyclohexyl-4-((2-(2-isopropylphenyl)-8-oxo-7,8-dihydro-9H-purin-9-yl)methyl)-N-methylbenzamide], the IC50 is below 0.05 µM.

With `CCNc1ncccc1-c1ncc2[nH]c(=O)n(Cc3ccc(-c4nc(C(F)(F)F)cn4C)cc3)c2n1` [Compound I-312, 2-(2-(ethylamino)pyridin-3-yl)-9-(4-(1-methyl-4-(trifluoromethyl)-1H-imidazol-2-yl)benzyl)-7,9-dihydro-8H-purin-8-one], the IC50 is below 0.05 µM.

Turning to `CC(C)c1ccccc1-c1ncc2[nH]c(=O)n([C@H](CO)c3ccc(F)cc3)c2n1` [Compound I-180, (S)-9-(1-(4-fluorophenyl)-2-hydroxyethyl)-2-(2-isopropylphenyl)-7,9-dihydro-8H-purin-8-one], the IC50 was 0.05 to 0.2 µM.

Consider `COCC1(N(C)C(=O)c2ccc(Cn3c(=O)[nH]c4cnc(-c5ccccc5C(C)C)nc43)cc2)CC1` [Compound I-391, 4-((2-(2-isopropylphenyl)-8-oxo-7,8-dihydro-9H-purin-9-yl)methyl)-N-(1-(methoxymethyl)cyclopropyl)-N-methylbenzamide], for which the IC50 was below 0.05 µM.

The compound `CC(C)c1c(F)cccc1-c1ncc2[nH]c(=O)n(Cc3ccc(-n4cccn4)cc3)c2n1` [Compound I-170, 9-(4-(1H-pyrazol-1-yl)benzyl)-2-(3-fluoro-2-isopropylphenyl)-7,9-dihydro-8H-purin-8-one] yielded an IC50 below 0.05 µM.

As to `CC(C)c1ccccc1-c1ncc2c(n1)n(Cc1ccc(-c3cccc4cnoc34)cc1)c(=O)n2C` [Compound I-267, 9-(4-(benzo[d]isoxazol-7-yl)benzyl)-2-(2-isopropylphenyl)-7-methyl-7,9-dihydro-8H-purin-8-one], the IC50 was 0.2 to 2 µM.

Regarding `CC(C)c1ncccc1-c1ncc2c(n1)n(Cc1ccc(-c3nc(C(F)(F)F)cn3C)cc1)c(=O)n2C` [Compound I-105, 2-(2-Isopropylpyridin-3-yl)-7-methyl-9-(4-(1-methyl-4-(trifluoromethyl)-1H-imidazol-2-yl)benzyl)-7,9-dihydro-8H-purin-8-one], the IC50 is below 0.05 µM.

Compound `Cn1cc(C(F)(F)F)nc1-c1ccc(Cn2c(=O)[nH]c3cnc(-c4cccc5c4OC(F)(F)O5)nc32)cc1` [Compound I-36, 2-(2,2-difluorobenzo[d][1,3]dioxol-4-yl)-9-(4-(1-methyl-4-(trifluoromethyl)-1H-imidazol-2-yl)benzyl)-7,9-dihydro-8H-purin-8-one] had an IC50 of 0.2 to 2 µM.

The compound `CNC(=O)N1CCC(c2ccn(-c3ccc(Cn4c(=O)[nH]c5cnc(-c6ccccc6C(C)C)nc54)cc3)n2)CC1` [Compound I-480, 4-(1-(4-((2-(2-isopropylphenyl)-8-oxo-7,8-dihydro-9H-purin-9-yl)methyl)phenyl)-1H-pyrazol-3-yl)-N-methylpiperidine-1-carboxamide] yielded an IC50 below 0.05 µM.

With `CC(C)c1ccccc1-c1ncc2[nH]c(=O)n(Cc3ccc(C(=O)N(C)C4CCOCC4)cc3)c2n1` [Compound I-367, 4-((2-(2-isopropylphenyl)-8-oxo-7,8-dihydro-9H-purin-9-yl)methyl)-N-methyl-N-(tetrahydro-2H-pyran-4-yl)benzamide], the IC50 lay in the range of 0.05 to 0.2 µM.

Take `COCCOc1ncccc1-c1ncc2[nH]c(=O)n(Cc3ccc(-c4nc(C(F)(F)F)cn4C)cc3)c2n1` [Compound I-423, 2-(2-(2-methoxyethoxy)pyridin-3-yl)-9-(4-(1-methyl-4-(trifluoromethyl)-1H-imidazol-2-yl)benzyl)-7,9-dihydro-8H-purin-8-one]: the concentration for half-maximal inhibition (IC50) fell in the range of 0.05 to 0.2 µM.

`CC(C)c1ccccc1-c1ncc2c(n1)n(Cc1cccc(OCc3cncn3C)c1)c(=O)n2C` [Compound I-243, 2-(2-isopropylphenyl)-7-methyl-9-(3-((1-methyl-1H-imidazol-5-yl)methoxy)benzyl)-7,9-dihydro-8H-purin-8-one] registered a half-maximal inhibitory concentration (IC50) of 0.2 to 2 µM.

`CC(C)c1ccccc1-c1ncc2[nH]c(=O)n(CC3CN(c4nccc(C(F)(F)F)n4)C3)c2n1` [Compound I-502, 2-(2-Isopropylphenyl)-9-((1-(4-(trifluoromethyl)pyrimidin-2-yl)azetidin-3-yl)methyl)-7,9-dihydro-8H-purin-8-one] came in with a concentration for half-maximal inhibition (IC50) above 2 µM.

In turn, `CC(C)COc1ncccc1-c1ncc2[nH]c(=O)n(Cc3ccc(-n4nccn4)cc3)c2n1` [Compound I-5, 9-(4-(2H-1,2,3-triazol-2-yl)benzyl)-2-(2-isobutoxypyridin-3-yl)-7,9-dihydro-8H-purin-8-one] gave an IC50 above 2 µM.

In turn, `CO[C@H](C)c1ccccc1-c1ncc2[nH]c(=O)n(Cc3ccc(-c4nc(C(F)(F)F)cn4C)cc3)c2n1` [Compound I-55, (R)-2-(2-(1-methoxyethyl)phenyl)-9-(4-(1-methyl-4-(trifluoromethyl)-1H-imidazol-2-yl)benzyl)-7,9-dihydro-8H-purin-8-one] showed an IC50 below 0.05 µM.

As to `CC(C)c1ccccc1-c1ncc2[nH]c(=O)n(Cc3ccc(C(=O)N4CCOC[C@H]4C)cc3)c2n1` [Compound I-404, (R)-2-(2-isopropylphenyl)-9-(4-(3-methylmorpholine-4-carbonyl)benzyl)-7,9-dihydro-8H-purin-8-one], the half-maximal inhibitory concentration (IC50) lay within 0.2 to 2 µM.

Consider `CC(C)c1ccccc1-c1ncc2c(n1)n(Cc1ccc(-c3nc(C(F)(F)F)cn3C3CN(C)C3)cc1)c(=O)n2C` [Compound I-448, 2-(2-isopropylphenyl)-7-methyl-9-(4-(1-(1-methylazetidin-3-yl)-4-(trifluoromethyl)-1H-imidazol-2-yl)benzyl)-7,9-dihydro-8H-purin-8-one], for which the IC50 is below 0.05 µM.

`Cc1nc(-c2ccc(Cn3c(=O)[nH]c4cnc(-c5ccccc5C(C)C)nc43)cc2)c(C)o1` [Compound I-200, 9-(4-(2,5-dimethyloxazol-4-yl)benzyl)-2-(2-isopropylphenyl)-7,9-dihydro-8H-purin-8-one]: the half-maximal inhibitory concentration (IC50) is below 0.05 µM.

The compound `[2H]C([2H])([2H])n1cc(C(F)(F)F)nc1-c1ccc(Cn2c(=O)n(C([2H])([2H])[2H])c3cnc(-c4cccnc4C(C)C)nc32)cc1` [Compound I-130, 2-(2-isopropylpyridin-3-yl)-7-(methyl-d3)-9-(4-(1-(methyl-d3)-4-(trifluoromethyl)-1H-imidazol-2-yl)benzyl)-7,9-dihydro-8H-purin-8-one] showed an IC50 below 0.05 µM.

The compound `CC(C)c1ccccc1-c1ncc2[nH]c(=O)n(Cc3ccc(C(=O)N4CC(F)C4)cc3)c2n1` [Compound I-386, 9-(4-(3-fluoroazetidine-1-carbonyl)benzyl)-2-(2-isopropylphenyl)-7,9-dihydro-8H-purin-8-one] registered a half-maximal inhibitory concentration (IC50) of 0.05 to 0.2 µM.

`CC(C)c1ccccc1-c1ncc2[nH]c(=O)n(Cc3ccc(-n4cc([C@@H](C)O)nn4)cc3)c2n1` [Compound I-347, (R)-9-(4-(4-(1-hydroxyethyl)-1H-1,2,3-triazol-1-yl)benzyl)-2-(2-isopropylphenyl)-7,9-dihydro-8H-purin-8-one] registered an IC50 above 2 µM.

For the compound `CC(=O)N1CCC(c2cnc(-c3ccc(Cn4c(=O)[nH]c5cnc(-c6ccccc6C(C)C)nc54)cc3)n2C)CC1` [Compound I-473, 9-(4-(5-(1-acetylpiperidin-4-yl)-1-methyl-lH-imidazol-2-yl)benzyl)-2-(2-isopropylphenyl)-7,9-dihydro-8H-purin-8-one], the 50% inhibitory concentration (IC50) is below 0.05 µM.

`Cc1nc(-c2ccc(Cn3c(=O)[nH]c4cnc(-c5ccccc5C(C)C)nc43)cc2)c(C)s1` [Compound I-301, 9-(4-(2,5-dimethylthiazol-4-yl)benzyl)-2-(2-isopropylphenyl)-7,9-dihydro-8H-purin-8-one]: the 50% inhibitory concentration (IC50) is below 0.05 µM.

The compound `CC(C)c1ncccc1-c1ncc2[nH]c(=O)n(Cc3c(F)cc(-c4nc(C(F)(F)F)cn4C)cc3F)c2n1` [Compound I-85, 9-(2,6-difluoro-4-(1-methyl-4-(trifluoromethyl)-1H-imidazol-2-yl)benzyl)-2-(2-isopropylpyridin-3-yl)-7,9-dihydro-8H-purin-8-one] returned an IC50 of 0.05 to 0.2 µM.

For `CC(C)c1ccccc1-c1ncc2[nH]c(=O)n(Cc3ccc(-n4cc(C5CCNCC5)cn4)cc3)c2n1` [Compound I-221, 2-(2-isopropylphenyl)-9-(4-(4-(piperidin-4-yl)-1H-pyrazol-1-yl)benzyl)-7,9-dihydro-8H-purin-8-one], the IC50 fell in the range of 0.2 to 2 µM.

For `CC(C)c1ccccc1-c1ncc2c(n1)n(Cc1ccc(-c3nccn3C(F)F)cc1)c(=O)n2C` [Compound I-500, 9-(4-(1-(difluoromethyl)-1H-imidazol-2-yl)benzyl)-2-(2-isopropylphenyl)-7-methyl-7,9-dihydro-8H-purin-8-one], the half-inhibitory concentration (IC50) was below 0.05 µM.

`CC(C)c1ncccc1-c1ncc2[nH]c(=O)n([C@@H](C)c3ccc(-c4nc(C(F)(F)F)cn4C)cc3)c2n1` [Compound I-80, (S)-2-(2-isopropylpyridin-3-yl)-9-(1-(4-(1-methyl-4-(trifluoromethyl)-1H-imidazol-2-yl)phenyl)ethyl)-7,9-dihydro-8H-purin-8-one] returned an IC50 below 0.05 µM.

`Cc1nc(-c2ccc(Cn3c(=O)n(C)c4cnc(-c5ccccc5C(C)C)nc43)cc2)n(C)n1` [Compound I-283, 9-(4-(1,3-dimethyl-1H-1,2,4-triazol-5-yl)benzyl)-2-(2-isopropylphenyl)-7-methyl-7,9-dihydro-8H-purin-8-one]: the concentration for half-maximal inhibition (IC50) was below 0.05 µM.

In turn, `CC(C)c1ccccc1-c1ncc2c(n1)n(Cc1ccc(OC3CCC3)cc1)c(=O)n2C` [Compound I-237, 9-(4-cyclobutoxybenzyl)-2-(2-isopropylphenyl)-7-methyl-7,9-dihydro-8H-purin-8-one] showed a concentration for half-maximal inhibition (IC50) of 0.05 to 0.2 µM.

Take `CC(C)c1ccccc1-c1ncc2[nH]c(=O)n(Cc3ccc(C(=O)NCc4nccn4C)cc3)c2n1` [Compound I-360, 4-((2-(2-isopropylphenyl)-8-oxo-7,8-dihydro-9H-purin-9-yl)methyl)-N-((1-methyl-1H-imidazol-2-yl)methyl)benzamide]: the IC50 was in the range of 0.2 to 2 µM.

Usually IC50 stands for the concentration that gives 50% inhibition. Low readings indicate greater potency in that assay, high ones weaker potency in that assay.
